# Test results taken from BindingDB's records for doi:10.1073/pnas.250483897 (University of Berne, 2000).
# Several values for one entry are separate records, joined by “and”; a condition that tells them apart may be missing. Equal values may be shown once. Starred links: 1 amine or outer side, 2 acyl side, 3 side chain; linkers in the order of their positions; H or OH if unused. Positions of bridges follow the written chain, without caps; N, C: chain ends. Non-standard residues stand in square brackets, D forms with d. Residues, ends and D or L forms follow the SMILES beside them. *: point of attachment. pNA = O=[N+]([O-])c1ccc(N*)cc1; Nle = CCCC[CH](N)C(=O)O; CO = O=C([*:1])[*:2]
# Legend:
# [1] = molecular target: Somatostatin receptor type 5 (Homo sapiens, UniProt P35346)
# Sequence of Somatostatin receptor type 5 (P35346 whole entry): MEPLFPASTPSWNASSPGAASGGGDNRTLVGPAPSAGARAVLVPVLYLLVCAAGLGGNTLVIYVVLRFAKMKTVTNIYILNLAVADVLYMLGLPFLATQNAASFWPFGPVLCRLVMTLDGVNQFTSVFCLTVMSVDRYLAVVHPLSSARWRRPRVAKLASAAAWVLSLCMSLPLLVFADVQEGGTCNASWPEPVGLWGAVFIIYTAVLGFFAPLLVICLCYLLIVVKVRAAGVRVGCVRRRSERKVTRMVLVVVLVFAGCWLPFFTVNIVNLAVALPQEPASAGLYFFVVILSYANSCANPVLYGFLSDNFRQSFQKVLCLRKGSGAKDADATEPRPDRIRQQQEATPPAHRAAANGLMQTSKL
# [2] = molecular target: Somatostatin receptor type 4 (Homo sapiens, UniProt P31391); settings: IC50 (nM)
# Sequence of Somatostatin receptor type 4 (P31391 whole entry): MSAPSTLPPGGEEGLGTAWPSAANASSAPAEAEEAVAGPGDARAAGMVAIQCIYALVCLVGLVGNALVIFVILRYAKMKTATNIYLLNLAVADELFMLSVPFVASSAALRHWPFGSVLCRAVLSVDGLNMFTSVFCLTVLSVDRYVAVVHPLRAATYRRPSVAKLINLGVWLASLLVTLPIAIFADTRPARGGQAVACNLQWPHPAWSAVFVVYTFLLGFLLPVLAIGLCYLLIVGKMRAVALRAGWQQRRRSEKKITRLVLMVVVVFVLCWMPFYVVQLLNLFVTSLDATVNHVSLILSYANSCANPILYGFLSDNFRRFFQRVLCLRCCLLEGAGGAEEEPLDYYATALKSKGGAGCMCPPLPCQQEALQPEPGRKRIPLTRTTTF
# [3] = molecular target: Somatostatin receptor type 3 (Homo sapiens, UniProt P32745)
# Sequence of Somatostatin receptor type 3 (P32745 whole entry): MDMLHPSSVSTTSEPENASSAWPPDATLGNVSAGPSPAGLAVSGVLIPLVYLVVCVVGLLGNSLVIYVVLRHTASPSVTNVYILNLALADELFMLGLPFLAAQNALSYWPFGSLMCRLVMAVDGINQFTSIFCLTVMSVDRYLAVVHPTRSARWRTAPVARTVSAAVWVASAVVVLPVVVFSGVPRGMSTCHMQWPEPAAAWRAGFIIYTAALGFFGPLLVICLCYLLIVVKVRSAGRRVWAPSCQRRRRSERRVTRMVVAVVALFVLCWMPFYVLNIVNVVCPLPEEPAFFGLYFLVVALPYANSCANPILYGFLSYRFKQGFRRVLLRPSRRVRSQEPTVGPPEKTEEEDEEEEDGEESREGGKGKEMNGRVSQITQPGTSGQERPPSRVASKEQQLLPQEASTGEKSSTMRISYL
Compound,IC50 [1] [nM],IC50 [2],IC50 [3] [nM]
"C[C@@H](O)[C@@H]1NC(=O)[C@H](CCCCN)NC(=O)[C@@H](N(C)C(=O)c2ccc3ccccc3c2)NC(=O)[C@H](Cc2ccc(O)cc2)NC(=O)[C@H](Cc2ccccc2)NC(=O)[C@H](N)CSSC[C@@H](C(=O)O)NC(=O)[C@H](Cc2ccccc2)NC1=O [des-AA 1,2,4,5,12,13[D-Cys3,Tyr7, D-Agl8(Me,2-naphthoyl)]-SS]",> 10000,> 10000 nM and 1000 nM,39
CSCC[C@H](NC(=O)[C@H](CCCN=C(N)N)NC(=O)[C@@H](N)CC(=O)O)C(=O)N1CCC[C@H]1C(=O)N[C@H]1CSSC[C@@H](C(=O)N[C@@H](CCCCN)C(=O)O)NC(=O)[C@H](CO)NC(=O)[C@H](CO)NC(=O)[C@H](Cc2ccccc2)NC(=O)[C@H]([C@@H](C)O)NC(=O)[C@H](CCCCN)NC(=O)[C@H](Cc2c[nH]c3ccccc23)NC(=O)[C@H](Cc2ccccc2)NC(=O)[C@H](Cc2ccccc2)NC(=O)[C@H](CC(N)=O)NC(=O)[C@H](CCCN=C(N)N)NC1=O [Cortistatin],13,2.5 nM,6.8
"C[C@@H](O)[C@@H]1NC(=O)[C@H](CCCCN)NC(=O)[C@@H](NC(=O)c2ccc3ccccc3c2)NC(=O)[C@H](Cc2ccccc2)NC(=O)[C@H](Cc2ccccc2)NC(=O)[C@@H](N)CSSC[C@@H](C(=O)O)NC(=O)[C@H](Cc2ccccc2)NC1=O [des-AA 1,2,4,5,12,13[D-2Nal8]-SS (ODN-8)]",,165 nM,
"C[C@@H](O)[C@@H]1NC(=O)[C@H](CCCCN)NC(=O)[C@@H](N(C)C(=O)c2ccc3ccccc3c2)NC(=O)[C@H](Cc2ccccc2)NC(=O)[C@H](Cc2ccccc2)NC(=O)[C@@H](N)CSSC[C@@H](C(=O)O)NC(=O)[C@H](Cc2ccccc2)NC1=O [des-AA 1,2,4,5,12,13[DAgl8(Me,2-naphthoyl)]-SS]",> 10000,> 10000 nM,70
"C[C@@H](O)[C@@H]1NC(=O)[C@H](CCCCN)NC(=O)[C@@H](N(C)C(=O)c2ccc3ccccc3c2)NC(=O)[C@H](Cc2ccc(O)cc2)NC(=O)[C@H](Cc2ccccc2)NC(=O)[C@H](NC(N)=O)CSSC[C@@H](C(=O)O)NC(=O)[C@H](Cc2ccccc2)NC1=O [Carbamoyl-des-AA 1,2,4,5,12,13[D-Cys3,Tyr7, D-Agl8(Me,2-naphthoyl)]-SS(sst3-ODN-8)]",> 10000,> 10000 nM,6.7
C[C@@H](O)[C@@H]1NC(=O)[C@H](CCCCN)NC(=O)[C@@H](Cc2c[nH]c3ccccc23)NC(=O)[C@H](Cc2ccccc2)NC(=O)[C@H](Cc2ccccc2)NC(=O)[C@@H](N)CSSC[C@@H](C(=O)O)NC(=O)[C@H](Cc2ccccc2)NC1=O [H-c(Cys3-Phe6-Phe7-DTrp8-Lys9-Thr10-Phe11-Cys14)-OH] (H-CFF[dW]KTFC-OH; disulfide 1-8),45,1.3 nM,13
"C[C@@H](O)[C@@H]1NC(=O)[C@H](CCCCN)NC(=O)[C@@H](N(C)C(=O)c2ccc3ccccc3c2)NC(=O)[C@H](Cc2ccccc2)NC(=O)[C@H](Cc2ccccc2)NC(=O)[C@H](N)CSSC[C@@H](C(=O)O)NC(=O)[C@H](Cc2ccccc2)NC1=O [des-AA 1,2,4,5,12,13[D-Cys3, D-Agl8(Me,2-naphthoyl)]-SS]",,> 10000 nM,115
CCCCC(NC(=O)NC(Cc1ccccc1)C(=O)Nc1ccc([N+](=O)[O-])cc1)C(=O)NC(CCCCN)C(=O)OC (stereo unspecified) [CAS_5311373] ({pNA-Phe-CO}-[Nle]-Lys-OMe; configuration not given here),> 10000,> 10000 nM,127
